Laboratory results as given in ChEMBL document CHEMBL2151021, “Novel amide- and sulfonamide-based aromatic ethanolamines: effects of various substituents on the inhibition of acid and neutral ceramidases” (Bioorg Med Chem, 2012).
pIC50: −log10 of the molar value. Active and inactive are the calls of the source. The rule behind the calls is not given here.

Tests used:
[1] = molecular target: Neutral ceramidase (Homo sapiens) (UniProt Q9NR71); assay: Inhibition of recombinant human nCDase expressed in Sf9 cells using fluorescently-labeled acyl-NBD-C12-ceramide as substrate at 80 uM after 2 hrs by fluorescence assay
[2] = molecular target: T1, Acid ceramidase (Homo sapiens) (UniProt Q13510); assay: Inhibition of recombinant human aCDase expressed in Sf9 cells using fluorescently-labeled acyl-NBD-C12-ceramide as substrate at 80 uM after 8 hrs by fluorescence assay
T1 sequence (whole entry): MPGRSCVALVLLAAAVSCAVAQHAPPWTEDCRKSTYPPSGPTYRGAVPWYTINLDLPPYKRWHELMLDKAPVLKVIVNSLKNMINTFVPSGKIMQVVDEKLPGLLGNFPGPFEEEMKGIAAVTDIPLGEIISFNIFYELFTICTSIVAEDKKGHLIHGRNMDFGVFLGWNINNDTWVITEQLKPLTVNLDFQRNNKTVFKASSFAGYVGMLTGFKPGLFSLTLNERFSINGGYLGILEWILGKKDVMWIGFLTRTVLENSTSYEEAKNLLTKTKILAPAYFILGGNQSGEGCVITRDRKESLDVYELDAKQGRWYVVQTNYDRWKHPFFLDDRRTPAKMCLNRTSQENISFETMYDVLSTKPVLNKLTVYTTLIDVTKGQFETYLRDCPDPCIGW

[3] = molecular target: Neutral ceramidase (Homo sapiens) (UniProt Q9NR71); assay: Activity of recombinant human nCDase expressed in Sf9 cells at 300 uM after 2 hrs by fluorescence assay
Acid ceramidase [4] = molecular target: T2, Acid ceramidase (Homo sapiens, UniProt Q13510); assay: Inhibition of aCDase expressed in human HL60 cell extract; type: cell-free, HL-60
T2 sequence (Q13510 whole entry): T1 sequence (whole entry)

Acid ceramidase [5] = molecular target: T2, Acid ceramidase; assay: Inhibition of aCDase

Chain of Neutral ceramidase (Homo sapiens) (Q9NR71 whole entry): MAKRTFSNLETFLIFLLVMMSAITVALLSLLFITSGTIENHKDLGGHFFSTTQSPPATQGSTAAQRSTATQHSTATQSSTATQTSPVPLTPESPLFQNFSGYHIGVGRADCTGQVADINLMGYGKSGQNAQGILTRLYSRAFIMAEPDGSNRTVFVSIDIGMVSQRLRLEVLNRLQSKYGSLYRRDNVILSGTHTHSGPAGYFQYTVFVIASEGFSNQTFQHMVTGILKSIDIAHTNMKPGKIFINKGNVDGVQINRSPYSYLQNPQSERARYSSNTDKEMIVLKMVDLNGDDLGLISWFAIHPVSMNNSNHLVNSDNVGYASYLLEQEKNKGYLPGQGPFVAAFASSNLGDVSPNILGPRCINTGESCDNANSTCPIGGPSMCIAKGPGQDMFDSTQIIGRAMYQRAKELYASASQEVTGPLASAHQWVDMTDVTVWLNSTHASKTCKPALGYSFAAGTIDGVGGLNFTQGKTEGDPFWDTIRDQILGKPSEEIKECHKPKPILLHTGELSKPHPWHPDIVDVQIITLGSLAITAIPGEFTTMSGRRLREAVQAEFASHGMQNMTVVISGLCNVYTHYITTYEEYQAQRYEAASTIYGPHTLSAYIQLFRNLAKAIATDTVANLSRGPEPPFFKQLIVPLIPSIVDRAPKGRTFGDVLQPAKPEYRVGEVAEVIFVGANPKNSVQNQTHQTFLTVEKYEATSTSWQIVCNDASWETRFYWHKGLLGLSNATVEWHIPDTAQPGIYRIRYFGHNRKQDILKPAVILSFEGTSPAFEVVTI

Row | Structure (SMILES) | inhibition [1] | inhibition [2] | Activity [3] | pIC50 (Acid ceramidase [4]) | pIC50 (Acid ceramidase [5])
1 | CCCCCCCCCCCCS(=O)(=O)NCC(O)c1ccc(C)cc1 (racemic) | Active | Active | inactive | – | –
2 | CCCCCCCCCCCCCC(=O)NCC(O)c1ccc(CCC)cc1 (racemic) | inactive | Active | – | – | –
3 | CCCCCCCCCCCCCC(=O)N[C@H](C)[C@@H](O)c1ccccc1 | – | Active | – | 6.00 | –
4 | CCCCCCCCCCCCS(=O)(=O)NCC(O)c1ccccc1 (racemic) | Active | Active | – | – | –
5 | CCCCCCCCCCCCCC(=O)NCC(O)c1ccc(CC)cc1 (racemic) | – | Active | – | – | –
6 | CCCCCCCCCCCCS(=O)(=O)N[C@H](C)[C@@H](O)c1ccccc1 | Active | Active | – | – | –
7 | CCCCCCCCCCCCCC(=O)NCC(O)c1ccc(C)cc1 (single isomer, unassigned; (-)) | Active | Active | – | – | –
8 | CCCCCCCCCCCCS(=O)(=O)NCC(O)c1cccnc1 (racemic) | Active | Active | – | – | –
9 | CCCCCCCCCCCCCC(=O)NCC(O)c1ccc(CCCC)cc1 (racemic) | – | inactive | – | – | –
10 | CCCCCCCCCCCCCC(=O)NCC(O)c1cccnc1 (racemic) | Active | Active | – | – | –
11 | CCCCCCCCCCCCCC(=O)NCC(O)c1ccc(C)cc1 (racemic) | Active | Active | inactive | – | –
12 | CCCCCCCCCCCCS(=O)(=O)N[C@H](CO)[C@H](O)c1ccc([N+](=O)[O-])cc1 | – | Active | – | – | –

The remaining lines, values ahead:

Row | inhibition [1] | inhibition [2] | Activity [3] | pIC50 (Acid ceramidase [4]) | pIC50 (Acid ceramidase [5]) | Structure (SMILES)
13 | Active | Active | – | – | – | CCCCCCCCCCCCCC(=O)NCC(=O)c1cccc(C)c1
14 | – | Active | – | – | – | CCCCCCCCCCCCCC(=O)NCC(O)c1cccc(C)c1 (racemic)
15 | – | Active | – | – | – | CCCCCCCCCCCCCC(=O)NCC(O)c1ccc(O)cc1 (racemic)
16 | Active | Active | – | – | – | CCCCCCCCCCCCCC(=O)NCC(=O)c1ccc(C)cc1
17 | Active | inactive | – | – | – | CCCCCCCCCCCCCC(=O)NCC(O)c1ccc(OC)cc1 (racemic)
18 | Active | Active | – | – | – | CCCCCCCCCCCCCC(=O)NCC(O)c1ccncc1 (racemic)
19 | Active | inactive | – | – | – | CCCCCCCCCCCCCC(=O)NCC(O)c1cccc(OC)c1 (racemic)
20 | – | Active | – | – | – | CCCCCCCCCCCCCC(=O)NCC(O)c1cccc(O)c1 (racemic)
21 | – | Active | – | – | – | CCCCCCCCCCCCCC(=O)NCC(O)c1ccccc1 (racemic)
22 | Active | Active | – | – | – | CCCCCCCCCCCCS(=O)(=O)NCC(O)c1ccncc1 (racemic)
23 | Active | Active | – | – | – | CCCCCCCCCCCCCC(=O)NCC(O)c1ccc(C)cc1 (stereo in doubt)
24 | – | Active | – | – | 5.00 | CCCCCCCCCCCCCC(=O)N[C@H](CO)[C@H](O)c1ccc([N+](=O)[O-])cc1
25 | inactive | Active | – | – | – | CCCCCCCCCCCCCC(=O)NCC(O)c1ccc(C(C)(C)C)cc1 (racemic)
